Where “and” joins values, the source holds several entries; their conditions need not be identical. Identical values can stand only once.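 The compound was tested at five concentrations on cells cultured in 96-well plates, with a 48-hour exposure period. At the GI50, growth is halved. TGI marks complete inhibition of growth.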
Assays:
Assay in all cases: DTP human tumour cell line panel, 48 h
SF-268 CNS = test system: SF-268 CNS
HL-60(TB) leukemia = test system: HL-60(TB) leukemia
UACC-62 melanoma = test system: UACC-62 melanoma
SNB-19 CNS = test system: SNB-19 CNS
M14 melanoma = test system: M14 melanoma
SK-MEL-5 melanoma = test system: SK-MEL-5 melanoma
HS 578T breast = test system: HS 578T breast
BT-549 breast = test system: BT-549 breast
SF-295 CNS = test system: SF-295 CNS
NCI/ADR-RES ovarian = test system: NCI/ADR-RES ovarian
SR leukemia = test system: SR leukemia
UACC-257 melanoma = test system: UACC-257 melanoma
PC-3 prostate = test system: PC-3 prostate
MCF7 breast = test system: MCF7 breast
HCT-15 colon = test system: HCT-15 colon
NCI-H23 lung = test system: NCI-H23 lung
OVCAR-8 ovarian = test system: OVCAR-8 ovarian
SK-MEL-2 melanoma = test system: SK-MEL-2 melanoma
NCI-H460 lung = test system: NCI-H460 lung
NCI-H522 lung = test system: NCI-H522 lung
SF-539 CNS = test system: SF-539 CNS
KM12 colon = test system: KM12 colon
MOLT-4 leukemia = test system: MOLT-4 leukemia
CAKI-1 renal = test system: CAKI-1 renal
COLO 205 colon = test system: COLO 205 colon
HOP-92 NSCLC = test system: HOP-92 NSCLC
786-0 renal = test system: 786-0 renal
SN12C renal = test system: SN12C renal
HCT-116 colon = test system: HCT-116 colon
RPMI-8226 leukemia = test system: RPMI-8226 leukemia
MDA-MB-231 breast = test system: MDA-MB-231 breast
EKVX NSCLC = test system: EKVX NSCLC
UO-31 renal = test system: UO-31 renal
HT29 colon = test system: HT29 colon
DU-145 prostate = test system: DU-145 prostate
A549 NSCLC = test system: A549 NSCLC
LOX IMVI melanoma = test system: LOX IMVI melanoma
HCC-2998 colon = test system: HCC-2998 colon
HOP-62 NSCLC = test system: HOP-62 NSCLC
OVCAR-3 ovarian = test system: OVCAR-3 ovarian
A498 renal = test system: A498 renal
SW-620 colon = test system: SW-620 colon
SK-OV-3 ovarian = test system: SK-OV-3 ovarian
K-562 leukemia = test system: K-562 leukemia
NCI-H226 lung = test system: NCI-H226 lung
U251 CNS = test system: U251 CNS
SK-MEL-28 melanoma = test system: SK-MEL-28 melanoma
CCRF-CEM leukemia = test system: CCRF-CEM leukemia
OVCAR-5 ovarian = test system: OVCAR-5 ovarian
TK-10 renal = test system: TK-10 renal
OVCAR-4 ovarian = test system: OVCAR-4 ovarian
RXF 393 renal = test system: RXF 393 renal
ACHN renal = test system: ACHN renal
IGROV1 ovarian = test system: IGROV1 ovarian

**Q.** `CCOC(=O)c1cc(C(=O)c2cc(OC)cc(OC)c2)n2ncc3ccccc3c12` was tested. Which GI50 (SF-268 CNS) did it give?
**A.** The GI50 was 1590 nM.

**Q.** What about the TGI (SF-268 CNS) of the same molecule?
**A.** Its TGI is > 100000 nM.

**Q.** What about the GI50 (HL-60(TB) leukemia) of the same molecule?
**A.** The GI50 was 820 nM.

**Q.** And the TGI (HL-60(TB) leukemia)?
**A.** Its TGI is > 100000 nM.

**Q.** And the GI50 (UACC-62 melanoma)?
**A.** Its GI50 is 692 nM.

**Q.** What about the TGI (UACC-62 melanoma) of the same molecule?
**A.** Its TGI is > 100000 nM.

**Q.** And the GI50 (SNB-19 CNS)?
**A.** Its GI50 is 1570 nM.

**Q.** And the TGI (SNB-19 CNS)?
**A.** Its TGI is > 100000 nM.

**Q.** What about the GI50 (M14 melanoma) of the same molecule?
**A.** The GI50 was 485 nM.

**Q.** What about the TGI (M14 melanoma) of the same molecule?
**A.** The TGI was > 100000 nM.

**Q.** And the GI50 (SK-MEL-5 melanoma)?
**A.** The GI50 was 623 nM.

**Q.** And the TGI (SK-MEL-5 melanoma)?
**A.** Its TGI is > 100000 nM.

**Q.** What about the GI50 (HS 578T breast) of the same molecule?
**A.** Its GI50 is 1840 nM.

**Q.** What about the TGI (HS 578T breast) of the same molecule?
**A.** Its TGI is > 100000 nM.

**Q.** And the GI50 (BT-549 breast)?
**A.** The GI50 was 1180 nM.

**Q.** And the TGI (BT-549 breast)?
**A.** The TGI was > 100000 nM.

**Q.** And the GI50 (SF-295 CNS)?
**A.** The GI50 was 483 nM.

**Q.** And the TGI (SF-295 CNS)?
**A.** The TGI was > 100000 nM.

**Q.** And the GI50 (NCI/ADR-RES ovarian)?
**A.** Its GI50 is 476 nM.

**Q.** What about the TGI (NCI/ADR-RES ovarian) of the same molecule?
**A.** Its TGI is > 100000 nM.

**Q.** What about the GI50 (SR leukemia) of the same molecule?
**A.** The GI50 was 442 nM.

**Q.** And the TGI (SR leukemia)?
**A.** Its TGI is > 100000 nM.

**Q.** And the GI50 (UACC-257 melanoma)?
**A.** The GI50 was > 100000 nM.

**Q.** What about the TGI (UACC-257 melanoma) of the same molecule?
**A.** Its TGI is > 100000 nM.

**Q.** What about the GI50 (PC-3 prostate) of the same molecule?
**A.** Its GI50 is 839 nM.

**Q.** And the TGI (PC-3 prostate)?
**A.** The TGI was > 100000 nM.

**Q.** And the GI50 (MCF7 breast)?
**A.** Its GI50 is 410 nM.

**Q.** What about the TGI (MCF7 breast) of the same molecule?
**A.** Its TGI is > 100000 nM.

**Q.** And the GI50 (HCT-15 colon)?
**A.** The GI50 was 484 nM.

**Q.** And the TGI (HCT-15 colon)?
**A.** Its TGI is > 100000 nM.

**Q.** Which TGI (NCI-H23 lung) does the source give for `COc1cc2nc(N3CCN(C(=O)c4ccco4)CC3)nc(N)c2cc1OC` here?
**A.** The TGI was 27100 nM.

**Q.** What does the source list for `CNc1ccc(-c2cc(=O)oc3ccc(Cl)cc23)cc1`?
**A.** GI50 (OVCAR-8 ovarian): 601 nM and 197 nM; TGI (OVCAR-8 ovarian): > 100000 nM; GI50 (SF-268 CNS): 247 nM and 66 nM; TGI (SF-268 CNS): > 100000 nM; GI50 (SK-MEL-2 melanoma): 215 nM and 29.4 nM; TGI (SK-MEL-2 melanoma): 93.2 nM; GI50 (NCI-H460 lung): 48.7 nM and 44.1 nM; TGI (NCI-H460 lung): > 100000 nM; GI50 (HL-60(TB) leukemia): 43.1 nM and 31.7 nM; TGI (HL-60(TB) leukemia): 2050 nM and 1140 nM; GI50 (UACC-62 melanoma): 36.9 nM and 43.1 nM; TGI (UACC-62 melanoma): 89700 nM; GI50 (NCI-H522 lung): 30 nM; TGI (NCI-H522 lung): 311 nM; GI50 (SF-539 CNS): 52.7 nM and 25.5 nM; TGI (SF-539 CNS): 481 nM and 109 nM; GI50 (KM12 colon): 50.6 nM and 43.3 nM; TGI (KM12 colon): > 100000 nM; GI50 (MOLT-4 leukemia): 108 nM and 62.6 nM; TGI (MOLT-4 leukemia): 50100 nM; TGI (CAKI-1 renal): > 100000 nM; GI50 (COLO 205 colon): 278 nM and 201 nM; TGI (COLO 205 colon): 1170 nM and 1270 nM; GI50 (SNB-19 CNS): 230 nM and 71.7 nM; TGI (SNB-19 CNS): > 100000 nM; TGI (HOP-92 NSCLC): 7960 nM; GI50 (M14 melanoma): 39.3 nM and 31.3 nM; TGI (M14 melanoma): > 100000 nM; GI50 (SK-MEL-5 melanoma): 121 nM and 77.2 nM; TGI (SK-MEL-5 melanoma): 1110 nM and 2560 nM; GI50 (786-0 renal): 133 nM and 44.2 nM; TGI (786-0 renal): > 100000 nM; TGI (SN12C renal): > 100000 nM; GI50 (HCT-116 colon): 44 nM; TGI (HCT-116 colon): 5230 nM; GI50 (RPMI-8226 leukemia): 194 nM and 154 nM; TGI (RPMI-8226 leukemia): 33900 nM; GI50 (HS 578T breast): 83 nM and 72.5 nM; GI50 (MDA-MB-231 breast): 1070 nM and 424 nM; TGI (MDA-MB-231 breast): > 100000 nM; GI50 (EKVX NSCLC): 589 nM and 279 nM; TGI (EKVX NSCLC): > 100000 nM; GI50 (BT-549 breast): 102 nM and 44 nM; TGI (BT-549 breast): 3020 nM; GI50 (UO-31 renal): 417 nM and 501 nM; TGI (UO-31 renal): > 100000 nM; GI50 (HT29 colon): 297 nM and 139 nM; TGI (HT29 colon): 496 nM; GI50 (DU-145 prostate): 183 nM and 155 nM; GI50 (A549 NSCLC): 137 nM and 85.6 nM; TGI (A549 NSCLC): > 100000 nM; GI50 (SF-295 CNS): 47.9 nM and 32.2 nM; TGI (SF-295 CNS): > 100000 nM; GI50 (NCI/ADR-RES ovarian): 37.1 nM and 36.3 nM; GI50 (SR leukemia): 46.3 nM; GI50 (LOX IMVI melanoma): 63.6 nM and 54.2 nM; TGI (LOX IMVI melanoma): > 100000 nM; GI50 (HCC-2998 colon): 373 nM and 127 nM; TGI (HCC-2998 colon): 17100 nM; GI50 (HOP-62 NSCLC): 69.6 nM and 169 nM; TGI (HOP-62 NSCLC): > 100000 nM; GI50 (OVCAR-3 ovarian): 34.2 nM; TGI (OVCAR-3 ovarian): 270 nM; GI50 (UACC-257 melanoma): > 100000 nM; TGI (UACC-257 melanoma): > 100000 nM; GI50 (A498 renal): 81.1 nM and 59.8 nM; GI50 (PC-3 prostate): 226 nM and 64 nM; TGI (PC-3 prostate): > 100000 nM; GI50 (SW-620 colon): 47.7 nM and 43.7 nM; TGI (SW-620 colon): > 100000 nM; GI50 (NCI-H23 lung): 311 nM and 219 nM; TGI (NCI-H23 lung): > 100000 nM; GI50 (SK-OV-3 ovarian): 218 nM and 107 nM; TGI (SK-OV-3 ovarian): > 100000 nM; GI50 (K-562 leukemia): 31.2 nM and 36.3 nM; TGI (K-562 leukemia): > 100000 nM; GI50 (NCI-H226 lung): 719 nM and 4050 nM; TGI (NCI-H226 lung): > 100000 nM; GI50 (MCF7 breast): 229 nM and 151 nM; TGI (MCF7 breast): > 100000 nM; GI50 (U251 CNS): 175 nM and 47.2 nM; TGI (U251 CNS): > 100000 nM; GI50 (SK-MEL-28 melanoma): 2080 nM; TGI (SK-MEL-28 melanoma): > 100000 nM; GI50 (CCRF-CEM leukemia): 146 nM and 49.4 nM; TGI (CCRF-CEM leukemia): > 100000 nM; GI50 (OVCAR-5 ovarian): 795 nM and 457 nM; TGI (OVCAR-5 ovarian): > 100000 nM; GI50 (TK-10 renal): 702 nM and 210 nM; TGI (TK-10 renal): > 100000 nM; TGI (OVCAR-4 ovarian): > 100000 nM; GI50 (HCT-15 colon): 42.1 nM; GI50 (RXF 393 renal): 91.2 nM; TGI (RXF 393 renal): > 100000 nM; GI50 (ACHN renal): 104 nM and 55.8 nM; TGI (ACHN renal): > 100000 nM; TGI (IGROV1 ovarian): > 100000 nM

Source: PubChem BioAssay (NCI)
